Among the data in publication PMC6792352, “Limited Chemical Structural Diversity Found to Modulate Thyroid Hormone Receptor in the Tox21 Chemical Library” (Environmental Health Perspectives, 2019) are CC50 values, retold here.

Counter-ions that a name gives are not always drawn. A value given as a limit tells only on which side of the number the result lay.

The nature of this data set: in vitro. The following applies: rat, gh3-tre-luc cells.

In turn, `CCOC(=O)C(Cl)C(C)=O` (centres unmarked) [Ethyl 2-chloroacetoacetate] had a CC50 at 24 h (AC50 (uM) modified / 1000, Tox21_110001=Tox21_202936, viability, 1 nM T3 present, 24 h) above 90 µM.

Take `C/C=C/C1=C(C(=O)O)N2C(=O)[C@@H](NC(=O)[C@H](N)c3ccc(O)cc3)[C@H]2SC1` [Cefprozil monohydrate]: the CC50 at 24 h (AC50 (uM) modified / 1000) was above 50 µM.

For `CCCC(C)(COC(N)=O)COC(N)=O` [Meprobamate], the CC50 at 24 h by setting is: (AC50 (uM) modified / 1000, Tox21_110001=Tox21_111063, viability, 1 nM T3 present, 24 h) above 50 µM; (AC50 (uM) modified / 1000, Tox21_110001=Tox21_200332, viability, 1 nM T3 present, 24 h) above 90 µM.

`CC(C)Cc1ccc(CC(=O)O)cc1` [Ibufenac]: the CC50 at 24 h (AC50 (uM) modified / 1000) was above 50 µM.

`COc1cc(CNC(=O)CCCC/C=C/C(C)C)ccc1O` [Capsaicin] displayed a CC50 at 24 h (AC50 (uM) modified / 1000) above 90 µM.

`CC1CN1P(=O)(N1CC1C)N1CC1C` (centres unmarked) [Metepa] gave a CC50 at 24 h (AC50 (uM) modified / 1000, Tox21_110001=Tox21_301807, viability, 1 nM T3 present, 24 h) above 90 µM.

With `O=C(O)c1cc(/N=N/c2ccc(S(=O)(=O)Nc3ccccn3)cc2)ccc1O` [Sulfasalazine], the CC50 at 24 h (AC50 (uM) modified / 1000) was above 90 µM.

In turn, `CCN(CC#N)c1cccc(C)c1` [2-(Ethyl(3-methylphenyl)amino)acetonitrile] had a CC50 at 24 h (AC50 (uM) modified / 1000) above 90 µM.

`O=C1NS(=O)(=O)c2ccccc21` [Sodium saccharin] came in with a CC50 at 24 h (AC50 (uM) modified / 1000) above 90 µM.

Take `CCC(=O)O[C@H]1CC[C@H]2[C@@H]3CCC4=CC(=O)CC[C@]4(C)[C@H]3CC[C@]12C` [Testosterone propionate]: the CC50 at 24 h (AC50 (uM) modified / 1000, Tox21_110001=Tox21_110330, viability, 1 nM T3 present, 24 h) was above 20 µM and half-maximal cytotoxicity (AC50 (uM) modified / 1000, Tox21_110001=Tox21_302270, viability, 1 nM T3 present, 24 h) (CC50 at 24 h) was put at 55 µM.

Under “AC50 (uM) modified / 1000”, `CCCC[n+]1cccc(C)c1` [1-Butyl-3-methylpyridinium bromide] gave a CC50 at 24 h above 90 µM.

With `CCO[Si](CC(C)C)(OCC)OCC` [Triethoxy(2-methylpropyl)silane], the CC50 at 24 h (AC50 (uM) modified / 1000) is above 90 µM.

Turning to `CCCn1cc[n+](C)c1C` [1,2-Dimethyl-3-propylimidazolium iodide], the CC50 at 24 h (AC50 (uM) modified / 1000) was above 90 µM.

In turn, `Cc1c(N(C)C)c(=O)n(-c2ccccc2)n1C` [4-Dimethylaminoantipyrine] yielded a CC50 at 24 h (AC50 (uM) modified / 1000) above 50 µM.

Regarding `CCCCOCCOP(=O)(OCCOCCCC)OCCOCCCC` [Tris(2-butoxyethyl) phosphate], the CC50 at 24 h is above 90 µM (AC50 (uM) modified / 1000, Tox21_110001=Tox21_201593, viability, 1 nM T3 present, 24 h) and 58.5 µM (AC50 (uM) modified / 1000, Tox21_110001=Tox21_302891, viability, 1 nM T3 present, 24 h).

In the case of `COC(=O)CC(C)CCC=C(C)C` (centres unmarked) [Methyl citronellate], where the note is “AC50 (uM) modified / 1000”, the CC50 at 24 h is above 90 µM.

For `CCOc1ccc(NS(=O)(=O)c2ccc(N)cc2)nn1` [Sulfaethoxypyridazine], where the note is “AC50 (uM) modified / 1000”, the 50% cytotoxic concentration (CC50) at 24 h is above 50 µM.

As to `N=C(N)NC(=O)Cc1c(Cl)cccc1Cl` [Guanfacine hydrochloride], the 50% cytotoxic concentration (CC50) at 24 h (AC50 (uM) modified / 1000) is 31.7 µM.

Where the note is “AC50 (uM) modified / 1000”, `CCCOc1nn(C(=O)NS(=O)(=O)c2ccccc2C(=O)OC)c(=O)n1C` [Propoxycarbazone-sodium] yielded a CC50 at 24 h above 90 µM.

With `CC(C)=CCOc1ccc(/C=C/C(=O)c2ccc(OCC=C(C)C)cc2OCC(=O)O)cc1` [Sofalcone], the CC50 at 24 h (AC50 (uM) modified / 1000) is 43 µM.

Regarding `OCCCO` [1,3-Propanediol], for the setting “AC50 (uM) modified / 1000”, the half-maximal cytotoxic concentration (CC50) at 24 h was above 200 µM.

As to `CCCCC(CC)CN1CN(CC(CC)CCCC)CC(C)(N)C1` (centres unmarked) [Hexetidine], where the note is “AC50 (uM) modified / 1000”, the CC50 at 24 h was above 20 µM.

For `C=C(Cl)CSC(=S)N(CC)CC` [Sulfallate], for the setting “AC50 (uM) modified / 1000, Tox21_110001=Tox21_200042, viability, 1 nM T3 present, 24 h”, the CC50 at 24 h is above 100 µM.

For the setting “AC50 (uM) modified / 1000”, `CC(C)(C)C(=O)c1ccccc1` [tert-Butyl phenyl ketone] returned a CC50 at 24 h above 90 µM.

`O=C(O)COc1ccc(CCNS(=O)(=O)c2ccccc2)s1` [Linotroban] registered a CC50 at 24 h (AC50 (uM) modified / 1000) above 50 µM.

The compound `OC[C@H](Cc1cccc(O)c1)[C@H](CO)Cc1cccc(O)c1` [(-)-Enterodiol] showed a CC50 at 24 h (AC50 (uM) modified / 1000) above 90 µM.

Take `O=C(O)c1cccc(Cl)c1` [3-Chlorobenzoic acid]: the CC50 at 24 h (AC50 (uM) modified / 1000, Tox21_110001=Tox21_200325, viability, 1 nM T3 present, 24 h) was above 90 µM.

Turning to `O=c1cc(CO)occ1O` [Kojic acid], the CC50 at 24 h (AC50 (uM) modified / 1000) was above 50 µM.

As for `Cc1cccn2c(=O)c(-c3nnn[nH]3)cnc12` [Pemirolast potassium], the cytotoxic concentration (CC50) at 24 h (AC50 (uM) modified / 1000) is above 50 µM.

The compound `CCC(C)c1cc([N+](=O)[O-])cc([N+](=O)[O-])c1OC(=O)OC(C)C` (centres unmarked) [Dinobuton] came in with a CC50 at 24 h (AC50 (uM) modified / 1000) of 42.5 µM. In other words, the double-digit micromolar range.

For the setting “AC50 (uM) modified / 1000”, `N#CNC(=N)N` [Cyanoguanidine] came in with a CC50 at 24 h above 90 µM.

`Nc1cc(S(=O)(=O)O)cc2cc(S(=O)(=O)O)cc(O)c12` [Monosodium 8-amino-1-naphthol-3,6-disulfonate] gave a CC50 at 24 h (AC50 (uM) modified / 1000) above 90 µM.
